Experimental data reported in US20120065614A1 (UNIVERSITY OF NORTH TEXAS, priority 2010, published 2012).
Like-named read-outs stand apart in the source and are kept apart here.

Columns and labels:
[1] = Time-resolved phosphorescence lifetime; assay type: physicochemical
Procedure: (§1) Photoluminescence characterization: All photoluminescence studies were carried with the PTI spectrofluorometer described below. For titrations, 2.5-mL aliquots were placed in the quartz cuvette and 0.1 mL of gel was added at every titration point with magnetic stirring. Titration data were plotted as I/Io vs. volume of gel added (where I=intensity of sample after addition of gel and 1o=intensity of pure aqueous gold phosphor solution). Lifetime data were analyzed using a xenon flash lamp or N2 laser systems for both the sample and a scatterer solution used to generate the instrument response function (IRF) used for deconvolution.

[2] = cited from earlier work
[3] = Steady-state photoluminescence spectra (emission/excitation maxima); assay type: physicochemical
Procedure: as §1
Spectroscopic equipment: Steady-state luminescence spectra were acquired with a PTI QuantaMaster Model QM-4 scanning spectrofluorometer equipped with a 75-watt xenon lamp. The UVN is absorption spectra were measured at 1-nm resolution on either a diode array spectrometer (Hewlett-Packard, model 8543) or a Perkin-Elmer Lambda-900 double-beam UVN is/NIR absorption spectrophotometer.

[4] = cited from earlier work; for emission band maximum: literature
[5] = solution, literature results, fitting error not given; cited from earlier work

SMILES: O=S(=O)([O-])c1cccc([PH](c2cccc(S(=O)(=O)[O-])c2)(c2cccc(S(=O)(=O)[O-])c2)[Au]([PH](c2cccc(S(=O)(=O)[O-])c2)(c2cccc(S(=O)(=O)[O-])c2)c2cccc(S(=O)(=O)[O-])c2)[PH](c2cccc(S(=O)(=O)[O-])c2)(c2cccc(S(=O)(=O)[O-])c2)c2cccc(S(=O)(=O)[O-])c2)c1 [Na8[Au(TPPTS)3], tris[tris(3,3′,3″-trisulfonatophenyl)phosphine]aurate(I)]
- phosphorescence lifetime ([1]; after addition of PNIPAM hydrogels to the aqueous solution): 2.6 μs
- phosphorescence lifetime ([1]; aqueous solution before addition of PNIPAM hydrogels): 1.4 μs
- τ, soln. (RT) ([1]; aqueous solution, RT): 2.04 ± 0.02 μs (FIGS.
- water solubility [2]: highly water soluble
- excitation maximum ([3]; aqueous solution of 0.001M): 292 nm
- emission maximum ([3]; solid state): 500 nm
- excitation maximum ([3]; solid state): 356 nm
- PL, soln. (RT), emission, corrected ([3]; solution, RT, Corr.): nm exc.; 525 nm em.
- PL, soln. (RT), excitation, corrected ([3]; solution, RT, Corr.): 285 nm
- PL, soln. (RT), emission, uncorrected ([3]; solution, RT, Uncorr.): 510 nm
- PL, soln. (RT), excitation, uncorrected ([3]; solution, RT, Uncorr.): Uncorr.: 296 nm exc.;
- emission band maximum ([4]; solid state at 77° K): 486 nm
- emission band maximum ([4]; solid state at room temperature): 494 nm
- PL, soln. (RT), emission ([4]; solution, RT, literature results (broad)): 513 nm
- PL, soln. (RT), excitation ([4]; solution, RT, literature results): 293 nm
- τ, soln. (RT) [5]: 1.9 μs (fitting error not given)
